In PubChem BioAssay (NCI):
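Tested at 5 concentrations; 48 h exposure; 96-well plates; endpoints linearly interpolated, else capped at highest concentration. At the GI50, growth is halved. At the TGI there is no net growth.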

Tests used:
Test in all cases: NCI tumour cell line growth inhibition, 48 h
TK-10 renal = system: TK-10 renal
HCT-15 colon = system: HCT-15 colon
NCI-H522 lung = system: NCI-H522 lung
EKVX NSCLC = system: EKVX NSCLC
A498 renal = system: A498 renal
CAKI-1 renal = system: CAKI-1 renal
M14 melanoma = system: M14 melanoma
MALME-3M melanoma = system: MALME-3M melanoma
T-47D breast = system: T-47D breast
HS 578T breast = system: HS 578T breast

Row | SMILES | TGI (TK-10 renal) [µM] | TGI (HCT-15 colon) [µM] | TGI (NCI-H522 lung) [µM] | TGI (EKVX NSCLC) [µM] | TGI (A498 renal) [µM] | TGI (CAKI-1 renal) [µM] | TGI (M14 melanoma) [µM] | TGI (MALME-3M melanoma) [µM] | GI50 (TK-10 renal) [µM] | GI50 (HCT-15 colon) [µM] | GI50 (NCI-H522 lung) [µM] | GI50 (EKVX NSCLC) [µM] | GI50 (A498 renal) [µM] | GI50 (T-47D breast) [µM] | TGI (T-47D breast) [µM] | GI50 (CAKI-1 renal) [µM] | GI50 (M14 melanoma) [µM] | GI50 (MALME-3M melanoma) [µM] | GI50 (HS 578T breast) [µM] | TGI (HS 578T breast) [µM]
1 | O=C(O)CCC(NC(=O)c1ccccc1)C(=O)O (stereo not drawn) | > 100 | > 100 | > 100 | > 100 | > 100 | > 100 | > 100 | > 100 |  |  |  |  |  |  |  |  |  |  |  | 
2 | O=C1C2C=CC(C2)C(c2ccc(O)cc2)N1O (stereo not drawn) | > 100 |  | > 100 | > 100 | > 100 | > 100 | > 100 | > 100 |  |  |  |  |  |  |  |  |  |  |  | 
3 | Cn1ccc2c(C(=O)c3ccccc3)cccc2c1=O | > 100 | > 100 | 81.1 | > 100 |  | > 100 | > 100 | > 100 |  |  |  |  |  |  |  |  |  |  |  | 
4 | COc1ccccc1C1c2cc3c(cc2OC(O)(CO)C1C(=O)O)OCO3 (stereo not drawn) (tested in a mixture with another compound) | > 100 | > 100 |  | > 100 | > 100 |  | > 100 | > 100 |  |  |  |  |  |  |  |  |  |  |  | 
5 | FC(F)(F)c1ccc(C#Cc2ccccc2C#Cc2ccccc2)cc1 | > 100 | > 100 | 45.4 | > 100 | 83.4 | > 100 | > 100 | > 100 | 31.7 | 35.1 | 21.4 | 33.6 | 29.3 | 26.2 | 60.1 | 46.1 | 44.3 | 36.3 |  | 
6 | Cc1ccc(NC(=O)C(=O)CC(=O)c2c(C)n([O-])c3ccccc3[n+]2=O)cc1 | > 100 | 89.4 | 46.1 | 40.9 | > 100 | > 100 | 60.1 | 65.2 |  |  |  |  |  |  |  |  |  |  |  | 
7 | CN(C)C=[N+]=[N-] | > 100 | > 100 | > 100 | > 100 | > 100 | > 100 | > 100 | > 100 |  |  |  |  |  |  |  |  |  |  |  | 
8 | O=C(c1ccccc1)C(Br)C(Br)c1cccc([N+](=O)[O-])c1 (stereo not drawn) | 8.31 | 3.36 | 2.57 | 34.5 |  | 3.58 | 3.17 | 3.84 | 2.81 | 1.72 | 1.11 | 16.4 |  | 2.13 | 5.65 | 1.76 | 1.78 | 2 |  | 
9 | COc1cc2c(cc1OC)[C@H]1C(COC(=O)c3ccccc3)CSC(=Nc3ccccc3)N1CC2 (stereo partly drawn) | > 100 | > 100 | 6.08 | > 100 | > 100 | > 100 | > 100 | > 100 |  |  |  |  |  |  |  |  |  |  |  | 
10 | NCCN.NCCN.O=C([O-])CCl.O=C([O-])CCl.[Co+3].[O-][Cl+3]([O-])([O-])[O-] | > 100 | > 100 | > 100 | > 100 | > 100 |  | > 100 | > 100 | > 100 | > 100 | > 100 | > 100 | > 100 |  |  |  | > 100 | > 100 |  | 
11 | O=S(=O)(c1cccc2c(Cl)cccc12)N1CCCNCC1 | 25.8 | 27.5 | 37.1 | 35.9 | 32.5 | 32.6 | 24.9 |  | 13 | 14.5 | 19.7 | 19.9 | 17.9 | 11.7 | 29.4 | 17.3 | 12.4 |  | 21.4 | 45.4
12 | C[N+]1(C)C/C(=C\c2ccccc2)C(=O)/C(=C/c2ccccc2)C1 | > 100 | > 100 |  |  | > 100 |  | > 100 | > 100 |  |  |  |  |  |  |  |  |  |  |  | 
13 | Nc1c([N+](=O)[O-])cc2c3c(cccc13)CC2 | > 100 | > 100 | > 100 | > 100 | > 100 | > 100 | > 100 |  |  |  |  |  |  |  | > 100 |  |  |  |  | > 100
14 | CC(C)c1c(O)ccc2c1CCC1C(C)(C)CCCC21C (stereo not drawn) | 35.8 | 34.3 | 34.6 | 31.7 |  | 31.7 | 30.2 | 35.6 |  |  |  |  |  |  | 5.75 |  |  |  |  | 57.2
15 | Cc1c(C(=O)CC(=O)C(=O)Nc2ccc(Cl)cc2)[n+](=O)c2ccccc2n1[O-] | > 100 | > 100 | > 100 | > 100 | > 100 | > 100 | > 100 | > 100 |  |  |  |  |  |  |  |  |  |  |  | 
16 | O=[N+]([O-])c1cc(C2SCc3nc4ccccc4n32)ccc1Cl (stereo not drawn) | > 100 |  | 77.1 | > 100 | 69.6 | > 100 |  | > 100 |  |  |  |  |  |  |  |  |  |  |  | 
17 | O=C(O)CNS(=O)(=O)c1ccc(NC(=O)CI)cc1 | > 100 | 41.5 | 4.4 | 81.6 | > 100 | > 100 | 44.3 | 39.6 |  |  |  |  |  |  |  |  |  |  |  | 
18 | COc1ccc(S(=O)(=O)N/N=C/c2cc(I)cc([N+](=O)[O-])c2O)cc1OC | > 100 | > 100 |  | > 100 | > 100 | 85.3 | > 100 | 83.9 |  |  |  |  |  |  |  |  |  |  |  | 
19 | Cc1[nH]c(=O)n2c(C)nnc2c1C(=O)Nc1cc(Cl)cc(Cl)c1 | 52.1 | 78.7 | 28.2 | > 100 |  | > 100 | > 100 | > 100 |  |  |  |  |  |  |  |  |  |  |  | 
20 | C[C@]12CCC(=O)C(O)=C1CC[C@@H]1C2CC[C@]2(C)Nc3c(cnn3-c3ccccc3)CC12 (stereo partly drawn) | > 100 | > 100 |  | > 100 | > 100 | > 100 | > 100 | > 100 |  |  |  |  |  |  |  |  |  |  |  | 
21 | COc1ccc2c(c1)Oc1cc(O)ccc1[C@@H]2c1ccccc1C(=O)NC(C)c1ccccc1 (stereo partly drawn) | 50.7 | 34.6 | 33.4 | 31.5 | 32.1 | 42.2 | 24.6 | 31.3 |  |  |  |  |  |  |  |  |  |  |  | 
22 | Oc1ccccc1CNCC12CC3CC(CC(C3)C1)C2 | > 100 | 91.1 |  |  | 31.5 | > 100 | 38.3 | 48.8 | 31.2 | 24.8 |  |  | 10.4 | 20.1 | 44.6 | 37 | 15.7 | 21.2 | 19.4 | 74.4
